Experiments:
[1] = biological target: Glycogen synthase kinase-3 alpha (Homo sapiens) (UniProt P49840); conditions: Compound concentration 1000.0 nM
[2] = biological target: Ephrin type-A receptor 8 (Homo sapiens) (UniProt P29322); conditions: Compound concentration 1000.0 nM
[3] = biological target: Casein kinase I isoform delta (Homo sapiens) (UniProt P48730); conditions: Compound concentration 1000.0 nM
[4] = biological target: Serine/threonine-protein kinase 32C (Homo sapiens) (UniProt Q86UX6); conditions: Compound concentration 1000.0 nM
[5] = system: Proto-oncogene tyrosine-protein kinase receptor Ret (Homo sapiens), P07949 [M918T]; conditions: Compound concentration 1000.0 nM
[6] = system: Epidermal growth factor receptor (Homo sapiens), P00533 [L861Q]; conditions: Compound concentration 1000.0 nM
[7] = biological target: Cyclin-dependent kinase 19 (Homo sapiens) (UniProt Q9BWU1); conditions: Compound concentration 1000.0 nM
[8] = system: Proto-oncogene tyrosine-protein kinase receptor Ret (Homo sapiens), P07949 [V804L]; conditions: Compound concentration 1000.0 nM
[9] = biological target: Non-receptor tyrosine-protein kinase TYK2 (Homo sapiens) (UniProt P29597); conditions: Compound concentration 1000.0 nM
[10] = biological target: Mitogen-activated protein kinase 15 (Homo sapiens) (UniProt Q8TD08); conditions: Compound concentration 1000.0 nM
[11] = biological target: Tyrosine-protein kinase JAK3 (Homo sapiens) (UniProt P52333); conditions: Compound concentration 1000.0 nM
[12] = biological target: Serine/threonine-protein kinase D3 (Homo sapiens) (UniProt O94806); conditions: Compound concentration 1000.0 nM
[13] = biological target: Atypical kinase COQ8A, mitochondrial (Homo sapiens) (UniProt Q8NI60); conditions: Compound concentration 1000.0 nM
[14] = biological target: STE20-like serine/threonine-protein kinase (Homo sapiens) (UniProt Q9H2G2); conditions: Compound concentration 1000.0 nM
[15] = biological target: Calcium/calmodulin-dependent protein kinase type II subunit beta (Homo sapiens) (UniProt Q13554); conditions: Compound concentration 1000.0 nM
[16] = biological target: Dual specificity tyrosine-phosphorylation-regulated kinase 2 (Homo sapiens) (UniProt Q92630); conditions: Compound concentration 1000.0 nM
[17] = biological target: Leucine-rich repeat serine/threonine-protein kinase 2 (Homo sapiens) (UniProt Q5S007); conditions: Compound concentration 1000.0 nM
[18] = biological target: Fibroblast growth factor receptor 3 (Homo sapiens) (UniProt P22607); conditions: Compound concentration 1000.0 nM
[19] = biological target: cAMP-dependent protein kinase catalytic subunit PRKX (Homo sapiens) (UniProt P51817); conditions: Compound concentration 1000.0 nM
[20] = biological target: Tyrosine-protein kinase HCK (Homo sapiens) (UniProt P08631); conditions: Compound concentration 1000.0 nM
[21] = biological target: Tyrosine-protein kinase receptor Tie-1 (Homo sapiens) (UniProt P35590); conditions: Compound concentration 1000.0 nM
[22] = biological target: Delta-type opioid receptor (Homo sapiens) (UniProt P41143); conditions: Compound concentration 10.0 uM
[23] = biological target: Serine/threonine-protein kinase MARK1 (Homo sapiens) (UniProt Q9P0L2); conditions: Compound concentration 1000.0 nM
[24] = biological target: Mitotic checkpoint serine/threonine-protein kinase BUB1 (Homo sapiens) (UniProt O43683); conditions: Compound concentration 1000.0 nM
[25] = biological target: Serine/threonine-protein kinase pim-2 (Homo sapiens) (UniProt Q9P1W9); conditions: Compound concentration 1000.0 nM
[26] = biological target: Phosphorylase b kinase gamma catalytic chain, skeletal muscle/heart isoform (Homo sapiens) (UniProt Q16816); conditions: Compound concentration 1000.0 nM
[27] = biological target: Dual specificity tyrosine-phosphorylation-regulated kinase 1B (Homo sapiens) (UniProt Q9Y463); conditions: Compound concentration 1000.0 nM
[28] = biological target: Phosphatidylinositol 4,5-bisphosphate 3-kinase catalytic subunit gamma isoform (Homo sapiens) (UniProt P48736); conditions: Compound concentration 1000.0 nM
[29] = biological target: Serine/threonine-protein kinase pim-1 (Homo sapiens) (UniProt P11309); conditions: Compound concentration 1000.0 nM
[30] = biological target: Mitogen-activated protein kinase kinase kinase 5 (Homo sapiens) (UniProt Q99683); conditions: Compound concentration 1000.0 nM
[31] = biological target: Wee1-like protein kinase (Homo sapiens) (UniProt P30291); conditions: Compound concentration 1000.0 nM
[32] = biological target: Mast/stem cell growth factor receptor Kit (Homo sapiens) (UniProt P10721); conditions: Compound concentration 1000.0 nM
[33] = biological target: Insulin receptor (Homo sapiens) (UniProt P06213); conditions: Compound concentration 1000.0 nM
[34] = biological target: Leukocyte tyrosine kinase receptor (Homo sapiens) (UniProt P29376); conditions: Compound concentration 1000.0 nM
[35] = biological target: Insulin-like growth factor 1 receptor (Homo sapiens) (UniProt P08069); conditions: Compound concentration 1000.0 nM
[36] = biological target: Ribosomal protein S6 kinase alpha-6 (Homo sapiens) (UniProt Q9UK32); conditions: Compound concentration 1000.0 nM
[37] = biological target: Tyrosine-protein kinase SYK (Homo sapiens) (UniProt P43405); conditions: Compound concentration 1000.0 nM
[38] = biological target: Serine/threonine-protein kinase RIO2 (Homo sapiens) (UniProt Q9BVS4); conditions: Compound concentration 1000.0 nM
[39] = biological target: Homeodomain-interacting protein kinase 1 (Homo sapiens) (UniProt Q86Z02); conditions: Compound concentration 1000.0 nM
[40] = biological target: Tyrosine-protein kinase receptor TYRO3 (Homo sapiens) (UniProt Q06418); conditions: Compound concentration 1000.0 nM
[41] = system: Phosphatidylinositol 4,5-bisphosphate 3-kinase catalytic subunit alpha isoform (Homo sapiens), P42336 [I800L]; conditions: Compound concentration 1000.0 nM
[42] = biological target: Receptor tyrosine-protein kinase erbB-4 (Homo sapiens) (UniProt Q15303); conditions: Compound concentration 1000.0 nM
[43] = biological target: SRSF protein kinase 2 (Homo sapiens) (UniProt P78362); conditions: Compound concentration 1000.0 nM
[44] = biological target: Protein kinase C theta type (Homo sapiens) (UniProt Q04759); conditions: Compound concentration 1000.0 nM
[45] = biological target: Mitogen-activated protein kinase kinase kinase 19 (Homo sapiens) (UniProt Q56UN5); conditions: Compound concentration 1000.0 nM

Chain of Ribosomal protein S6 kinase alpha-6 (Homo sapiens) (Q9UK32 whole entry): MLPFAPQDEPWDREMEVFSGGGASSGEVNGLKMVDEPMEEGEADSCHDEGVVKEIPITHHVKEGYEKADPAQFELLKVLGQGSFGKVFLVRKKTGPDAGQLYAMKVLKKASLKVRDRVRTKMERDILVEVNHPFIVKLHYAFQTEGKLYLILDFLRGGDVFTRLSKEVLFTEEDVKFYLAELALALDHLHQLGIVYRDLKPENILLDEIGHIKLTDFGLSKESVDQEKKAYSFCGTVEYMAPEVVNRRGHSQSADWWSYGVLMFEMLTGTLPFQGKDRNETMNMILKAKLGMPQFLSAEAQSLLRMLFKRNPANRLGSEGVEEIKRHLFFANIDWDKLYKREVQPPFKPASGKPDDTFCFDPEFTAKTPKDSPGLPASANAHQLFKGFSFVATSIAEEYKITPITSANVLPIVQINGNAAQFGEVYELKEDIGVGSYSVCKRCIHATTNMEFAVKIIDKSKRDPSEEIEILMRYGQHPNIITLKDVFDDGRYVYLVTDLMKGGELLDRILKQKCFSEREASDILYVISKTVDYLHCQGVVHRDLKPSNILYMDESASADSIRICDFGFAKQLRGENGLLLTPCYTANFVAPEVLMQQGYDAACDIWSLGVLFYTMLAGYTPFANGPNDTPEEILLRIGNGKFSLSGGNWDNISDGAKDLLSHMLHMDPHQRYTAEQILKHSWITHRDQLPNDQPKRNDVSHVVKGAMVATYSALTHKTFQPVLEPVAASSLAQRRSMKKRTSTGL
Chain of Leukocyte tyrosine kinase receptor (Homo sapiens) (P29376 whole entry): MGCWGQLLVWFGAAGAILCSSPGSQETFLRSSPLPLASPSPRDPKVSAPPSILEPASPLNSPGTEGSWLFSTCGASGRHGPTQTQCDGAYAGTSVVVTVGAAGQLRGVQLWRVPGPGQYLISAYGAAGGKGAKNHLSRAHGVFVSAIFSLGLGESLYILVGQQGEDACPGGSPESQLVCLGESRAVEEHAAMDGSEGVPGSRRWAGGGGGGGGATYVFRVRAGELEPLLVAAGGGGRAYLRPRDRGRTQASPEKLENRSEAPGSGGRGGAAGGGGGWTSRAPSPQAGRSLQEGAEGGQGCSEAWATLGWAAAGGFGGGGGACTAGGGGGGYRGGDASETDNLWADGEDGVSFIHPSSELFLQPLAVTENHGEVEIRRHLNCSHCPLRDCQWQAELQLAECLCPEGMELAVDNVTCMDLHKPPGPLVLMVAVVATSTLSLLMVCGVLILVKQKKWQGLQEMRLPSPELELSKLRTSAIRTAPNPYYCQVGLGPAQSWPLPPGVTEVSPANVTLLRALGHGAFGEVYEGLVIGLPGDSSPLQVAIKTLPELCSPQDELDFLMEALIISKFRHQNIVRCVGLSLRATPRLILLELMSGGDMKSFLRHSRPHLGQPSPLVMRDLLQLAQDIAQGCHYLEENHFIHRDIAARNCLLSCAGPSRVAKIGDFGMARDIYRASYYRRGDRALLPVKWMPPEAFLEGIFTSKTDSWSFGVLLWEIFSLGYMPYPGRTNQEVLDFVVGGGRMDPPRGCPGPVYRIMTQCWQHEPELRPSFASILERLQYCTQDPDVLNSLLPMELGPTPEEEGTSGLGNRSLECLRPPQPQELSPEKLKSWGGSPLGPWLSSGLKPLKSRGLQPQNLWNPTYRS
Chain of Receptor tyrosine-protein kinase erbB-4 (Homo sapiens) (Q15303 whole entry): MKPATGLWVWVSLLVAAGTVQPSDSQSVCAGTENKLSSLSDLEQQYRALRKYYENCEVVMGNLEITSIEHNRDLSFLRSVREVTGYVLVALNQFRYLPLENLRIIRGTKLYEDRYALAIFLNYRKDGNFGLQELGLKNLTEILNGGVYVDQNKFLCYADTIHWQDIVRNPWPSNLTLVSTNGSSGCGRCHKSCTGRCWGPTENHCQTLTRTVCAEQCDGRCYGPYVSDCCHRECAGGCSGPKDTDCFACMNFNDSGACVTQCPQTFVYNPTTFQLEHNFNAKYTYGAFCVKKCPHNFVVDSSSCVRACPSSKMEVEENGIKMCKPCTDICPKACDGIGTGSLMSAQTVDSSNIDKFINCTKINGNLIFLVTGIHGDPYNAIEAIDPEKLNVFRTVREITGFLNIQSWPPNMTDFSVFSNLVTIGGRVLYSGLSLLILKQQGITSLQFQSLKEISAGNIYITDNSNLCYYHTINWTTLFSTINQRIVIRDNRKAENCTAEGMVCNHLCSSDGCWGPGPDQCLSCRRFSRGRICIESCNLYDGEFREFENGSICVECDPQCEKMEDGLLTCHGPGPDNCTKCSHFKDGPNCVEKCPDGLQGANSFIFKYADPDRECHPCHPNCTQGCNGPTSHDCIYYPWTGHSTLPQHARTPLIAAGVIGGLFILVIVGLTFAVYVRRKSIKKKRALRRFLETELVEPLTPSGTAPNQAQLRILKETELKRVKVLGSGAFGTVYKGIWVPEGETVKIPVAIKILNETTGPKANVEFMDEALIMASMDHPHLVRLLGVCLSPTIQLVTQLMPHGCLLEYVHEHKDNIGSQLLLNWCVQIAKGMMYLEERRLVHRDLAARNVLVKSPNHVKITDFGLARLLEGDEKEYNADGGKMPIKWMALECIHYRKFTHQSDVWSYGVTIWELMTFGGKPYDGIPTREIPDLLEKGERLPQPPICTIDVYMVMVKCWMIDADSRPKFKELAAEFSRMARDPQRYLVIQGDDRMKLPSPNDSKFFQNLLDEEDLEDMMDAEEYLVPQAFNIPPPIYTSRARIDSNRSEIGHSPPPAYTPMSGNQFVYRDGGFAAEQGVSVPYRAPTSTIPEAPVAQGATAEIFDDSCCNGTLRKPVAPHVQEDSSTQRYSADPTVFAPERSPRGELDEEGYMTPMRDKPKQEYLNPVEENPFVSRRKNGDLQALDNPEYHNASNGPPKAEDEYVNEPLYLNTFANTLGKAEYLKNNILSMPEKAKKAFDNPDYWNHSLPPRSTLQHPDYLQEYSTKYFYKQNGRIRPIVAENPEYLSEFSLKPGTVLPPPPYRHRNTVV
Chain of Cyclin-dependent kinase 19 (Homo sapiens) (Q9BWU1 whole entry): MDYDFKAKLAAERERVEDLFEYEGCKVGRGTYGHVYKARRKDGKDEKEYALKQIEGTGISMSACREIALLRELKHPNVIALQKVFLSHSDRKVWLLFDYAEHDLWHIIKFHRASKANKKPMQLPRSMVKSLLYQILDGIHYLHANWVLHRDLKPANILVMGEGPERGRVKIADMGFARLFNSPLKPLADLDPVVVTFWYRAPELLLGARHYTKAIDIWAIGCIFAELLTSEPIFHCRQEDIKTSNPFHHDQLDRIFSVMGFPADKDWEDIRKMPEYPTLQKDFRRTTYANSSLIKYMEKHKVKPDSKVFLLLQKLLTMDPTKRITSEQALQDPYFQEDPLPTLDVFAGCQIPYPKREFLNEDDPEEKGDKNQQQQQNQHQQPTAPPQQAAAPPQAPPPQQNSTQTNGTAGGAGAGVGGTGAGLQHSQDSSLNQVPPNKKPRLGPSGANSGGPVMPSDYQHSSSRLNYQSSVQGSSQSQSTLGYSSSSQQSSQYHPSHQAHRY
Chain of Phosphorylase b kinase gamma catalytic chain, skeletal muscle/heart isoform (Homo sapiens) (Q16816 whole entry, looked up, canonical isoform): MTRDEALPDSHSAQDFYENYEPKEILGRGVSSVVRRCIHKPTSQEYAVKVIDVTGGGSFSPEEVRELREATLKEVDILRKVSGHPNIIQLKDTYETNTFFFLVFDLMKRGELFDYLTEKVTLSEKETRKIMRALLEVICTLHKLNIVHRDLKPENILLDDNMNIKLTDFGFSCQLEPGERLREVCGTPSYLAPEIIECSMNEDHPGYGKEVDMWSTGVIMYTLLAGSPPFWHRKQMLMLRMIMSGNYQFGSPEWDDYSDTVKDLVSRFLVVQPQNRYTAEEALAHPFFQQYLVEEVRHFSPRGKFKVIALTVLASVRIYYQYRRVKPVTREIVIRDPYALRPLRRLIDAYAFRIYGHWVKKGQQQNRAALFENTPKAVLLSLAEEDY
Chain of Mitotic checkpoint serine/threonine-protein kinase BUB1 (Homo sapiens) (O43683 whole entry, looked up): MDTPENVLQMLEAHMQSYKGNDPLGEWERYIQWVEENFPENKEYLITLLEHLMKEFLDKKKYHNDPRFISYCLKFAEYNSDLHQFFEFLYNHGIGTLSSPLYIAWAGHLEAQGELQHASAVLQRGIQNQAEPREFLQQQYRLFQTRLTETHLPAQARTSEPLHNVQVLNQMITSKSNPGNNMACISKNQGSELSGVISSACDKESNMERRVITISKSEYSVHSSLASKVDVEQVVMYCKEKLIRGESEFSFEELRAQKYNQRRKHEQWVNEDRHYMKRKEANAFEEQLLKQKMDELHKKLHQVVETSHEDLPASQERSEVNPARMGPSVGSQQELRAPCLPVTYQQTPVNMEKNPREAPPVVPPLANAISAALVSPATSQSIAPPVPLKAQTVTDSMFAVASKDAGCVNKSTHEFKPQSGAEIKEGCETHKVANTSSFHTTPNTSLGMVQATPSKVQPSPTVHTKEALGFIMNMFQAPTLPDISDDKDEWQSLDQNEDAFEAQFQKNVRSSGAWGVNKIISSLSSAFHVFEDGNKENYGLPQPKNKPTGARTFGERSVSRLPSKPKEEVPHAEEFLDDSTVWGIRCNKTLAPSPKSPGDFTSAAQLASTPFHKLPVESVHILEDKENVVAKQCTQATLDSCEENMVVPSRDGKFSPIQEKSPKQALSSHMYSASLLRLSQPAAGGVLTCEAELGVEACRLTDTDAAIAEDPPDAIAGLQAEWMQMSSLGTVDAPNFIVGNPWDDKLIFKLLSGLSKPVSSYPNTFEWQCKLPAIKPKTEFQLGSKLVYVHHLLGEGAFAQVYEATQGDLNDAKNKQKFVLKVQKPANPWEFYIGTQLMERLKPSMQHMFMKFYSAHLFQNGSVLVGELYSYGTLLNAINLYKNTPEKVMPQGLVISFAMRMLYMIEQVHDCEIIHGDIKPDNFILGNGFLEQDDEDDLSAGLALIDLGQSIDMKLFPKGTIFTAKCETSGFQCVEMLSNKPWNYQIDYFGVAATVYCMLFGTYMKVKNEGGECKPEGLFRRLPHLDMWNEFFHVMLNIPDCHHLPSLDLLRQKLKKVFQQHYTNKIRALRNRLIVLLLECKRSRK

## O=C(NCc1ncc(C(F)(F)F)cc1Cl)c1ccc2c(c1)C1(CCS(=O)(=O)CC1)[C@@H](C1CC1)N2S(=O)(=O)c1ccc(F)cc1 [BAY-786]
[1]
  residual activity: 100%
[2]
  residual activity: 100%
[3]
  residual activity: 93%
[4]
  residual activity: 100%
[5]
  residual activity: 100%
[6]
  residual activity: 76%
[7]
  residual activity: 100%
[8]
  residual activity: 100%
[9]
  residual activity: 46%
[10]
  residual activity: 100%
[11]
  residual activity: 93%
[12]
  residual activity: 100%
[13]
  residual activity: 90%
[14]
  residual activity: 100%
[15]
  residual activity: 92%
[16]
  residual activity: 90%
[17]
  residual activity: 98%
[18]
  residual activity: 100%
[19]
  residual activity: 100%
[20]
  residual activity: 86%
[21]
  residual activity: 95%
[22]
  inhibition: -2.65%
[23]
  residual activity: 100%
[24]
  residual activity: 1.9%
[25]
  residual activity: 92%
[26]
  residual activity: 100%
[27]
  residual activity: 100%
[28]
  residual activity: 95%
[29]
  residual activity: 74%
[30]
  residual activity: 100%
[31]
  residual activity: 100%
[32]
  residual activity: 82%
[33]
  residual activity: 100%
[34]
  residual activity: 81%
[35]
  residual activity: 88%
[36]
  residual activity: 100%
[37]
  residual activity: 100%
[38]
  residual activity: 77%
[39]
  residual activity: 70%
[40]
  residual activity: 84%
[41]
  residual activity: 78%
[42]
  residual activity: 72%
[43]
  residual activity: 100%
[44]
  residual activity: 95%
[45]
  residual activity: 69%

## O=C(NCc1ncc(C(F)(F)F)cc1Cl)c1ccc2c(c1)C1(CCS(=O)(=O)CC1)[C@H](C1CC1)N2S(=O)(=O)c1ccc(F)cc1 [BAY-784]
[1]
  residual activity: 100%
[2]
  residual activity: 97%
[3]
  residual activity: 85%
[4]
  residual activity: 100%
[5]
  residual activity: 96%
[6]
  residual activity: 84%
[7]
  residual activity: 100%
[8]
  residual activity: 92%
[9]
  residual activity: 92%
[10]
  residual activity: 100%
[11]
  residual activity: 79%
[12]
  residual activity: 100%
[13]
  residual activity: 96%
[14]
  residual activity: 100%
[15]
  residual activity: 98%
[16]
  residual activity: 95%
[17]
  residual activity: 82%
[18]
  residual activity: 100%
[19]
  residual activity: 88%
[20]
  residual activity: 69%
[21]
  residual activity: 100%
[22]
  inhibition: -0.34%
[23]
  residual activity: 100%
[24]
  residual activity: 68%
[25]
  residual activity: 94%
[26]
  residual activity: 100%
[27]
  residual activity: 100%
[28]
  residual activity: 82%
[29]
  residual activity: 100%
[30]
  residual activity: 100%
[31]
  residual activity: 82%
[32]
  residual activity: 76%
[33]
  residual activity: 100%
[34]
  residual activity: 87%
[35]
  residual activity: 100%
[36]
  residual activity: 87%
[37]
  residual activity: 100%
[38]
  residual activity: 77%
[39]
  residual activity: 83%
[40]
  residual activity: 100%
[41]
  residual activity: 78%
[42]
  residual activity: 70%
[43]
  residual activity: 91%
[44]
  residual activity: 100%
[45]
  residual activity: 73%

From ChEMBL document CHEMBL4507266, “Data for DCP probe BAY-784” (2021)
